Source: patent publication US10370333B2 (Sanford Burnham Prebys Medical Discovery Institute, priority 2012, dated 2019)

What follows are compounds tested against TNAP (Homo sapiens (Human), UniProt P05186) (assay: TNAP (PPi) inhibition assay, pyrophosphate as substrate).
Assay type: biochemical
In short: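 Enzyme source was conditioned serum-free medium from COS-1 cells transiently expressing tagged human TNAP, dialyzed against TBS with MgCl2/ZnCl2. Activity on natural substrate PPi at pH 7.4 read as liberated phosphate (Biomol Green).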
For `COCCNC(=O)c1cncc(NS(=O)(=O)c2cc(Cl)ccc2OC)c1` [Example IV-32, 5-(5-Chloro-2-methyoxyphenylsulfonamido)-N-(2-methoxyethyl)nicotinamide], the IC50 was 0.1 to 1 µM.
For `COc1ccc(Cl)cc1S(=O)(=O)Nc1cncc(C(=O)NCCN(C)C)c1` [Example IV-33, 5-(5-Chloro-2-methoxyphenylsulfonamido)-N-(2-(dimethylamino)ethyl)nicotinamide], the IC50 was 0.1 to 1 µM.
`COc1ccc(Cl)cc1S(=O)(=O)Nc1cncc(C(=O)N2CCOCC2)c1` [Example IV-34, 5-Chloro-2-methoxy-N-(5-(morpholine-4-carbonyl)pyridin-3-yl)benzenesulfonamide] showed an IC50 of 0.1 to 1 µM.
For `COc1ccc(OC)c(S(=O)(=O)Nc2cncc(C(N)=O)c2)c1` [Example IV-36, 5-(2,5-Dimethoxyphenylsulfonamido)nicotinamide], the IC50 was 0.1 to 1 µM.
For `CNC(=O)c1cncc(NS(=O)(=O)c2cc(OC)ccc2OC)c1` [Example IV-37, 5-(2,5-Dimethoxyphenylsulfonamido)-N-methylnicotinamide], the IC50 was 0.1 to 1 µM.
`CCCNC(=O)c1cncc(NS(=O)(=O)c2cc(OC)ccc2OC)c1` [Example IV-38, 5-(2,5-Dimethoxyphenylsulfonamido)-N-propylnicotinamide] gave an IC50 of 0.1 to 1 µM.
In the case of `COc1ccc(OC)c(S(=O)(=O)Nc2cncc(C(=O)NC3CCCCC3)c2)c1` [Example IV-39, 5-(2,5-Dimethoxyphenylsulfonamido)-N-cyclohexylnicotinamide], the IC50 is reported as under 0.1 µM.
`COc1ccc(OC)c(S(=O)(=O)Nc2cncc(C(=O)Nc3ccccc3)c2)c1` [Example IV-40, 5-(2,5-Dimethoxyphenylsulfonamido)-N-phenylnicotinamide] was tested, and the IC50 was 0.1 to 1 µM.
`COCCNC(=O)c1cncc(NS(=O)(=O)c2cc(OC)ccc2OC)c1` [Example IV-41, 5-(2,5-Dimethoxyphenylsulfonamido)-N-(2-methoxyethyl)nicotinamide] gave an IC50 of 0.1 to 1 µM.
Work on `COc1ccc(OC)c(S(=O)(=O)Nc2cncc(C(=O)NCCN(C)C)c2)c1` [Example IV-42, 5-(2,5-Dimethoxyphenylsulfonamido)-N-(2-(dimethylamino)ethyl)nicotinamide] yielded an IC50 of 0.1 to 1 µM.
Work on `COc1ccc(OC)c(S(=O)(=O)Nc2cncc(C(=O)N3CCOCC3)c2)c1` [Example IV-43, 2,5-Dimethoxy-N-(5-(morpholine-4-carbonyl)pyridin-3-yl)benzenesulfonamide] yielded an IC50 of 0.1 to 1 µM.
`COc1ccc(OC)c(S(=O)(=O)Nc2cncc(C(=O)N3CCN(C)CC3)c2)c1` [Example IV-44, 2,5-Dimethoxy-N-(5-(4-methylpiperazine-1-carbonyl)pyridin-3-yl)benzenesulfonamide] showed an IC50 of under 0.1 µM.
`COc1ccc(Br)cc1S(=O)(=O)Nc1cnc2ccc(O)cc2c1` [Example IX-1, 5-Bromo-N-(6-hydroxyquinolin-3-yl)-2-methoxybenzenesulfonamide] gave an IC50 of under 0.1 µM.
`COc1ccc2ncc(NS(=O)(=O)c3cc(Br)ccc3OC)cc2c1` [Example IX-2, 5-Bromo-2-methoxy-N-(6-methoxyquinolin-3-yl)benzenesulfonamide] gave an IC50 of under 0.1 µM.
Compound `COc1ccc(OC)c(S(=O)(=O)Nc2cnc3ccc(O)cc3c2)c1` [Example IX-3, N-(6-Hydroxyquinolin-3-yl)-2,5-dimethoxybenzenesulfonamide] has an IC50 of under 0.1 µM.
`COC(=O)c1ccc2ncc(NS(=O)(=O)c3cc(Br)ccc3OC)cc2c1` [Example IX-4, 3-(5-Bromo-2-methoxy-benzenesulfonylamino)-quinoline-6-carboxylic Acid methyl ester] showed an IC50 of under 0.1 µM.
Compound `COc1ccc(Br)cc1S(=O)(=O)Nc1cnc2ccc(C(=O)O)cc2c1` [Example IX-5, 3-(5-Bromo-2-methoxy-benzenesulfonylamino)-quinoline-6-carboxylic Acid] has an IC50 of 0.1 to 1 µM.
`COc1ccc(Br)cc1S(=O)(=O)Nc1cnc2ccc(C(N)=O)cc2c1` [Example IX-6, 3-(5-Bromo-2-methoxy-benzenesulfonylamino)-quinoline-6-carboxylic Acid Amide] showed an IC50 of under 0.1 µM.
In the case of `CNC(=O)c1ccc2ncc(NS(=O)(=O)c3cc(Br)ccc3OC)cc2c1` [Example IX-7, 3-(5-Bromo-2-methoxy-benzenesulfonylamino)-quinoline-6-carboxylic Acid Methylamide], the IC50 is reported as under 0.1 µM.
Work on `COC(=O)c1ccc2ncc(NS(=O)(=O)c3cc(OC)ccc3OC)cc2c1` [Example IX-8, 3-(2,5-Dimethoxy-benzenesulfonylamino)-quinoline-6-carboxylic Acid Methyl Ester] yielded an IC50 of 0.1 to 1 µM.
In the case of `COc1ccc(OC)c(S(=O)(=O)Nc2cnc3ccc(C(=O)O)cc3c2)c1` [Example IX-9, 3-(2,5-Dimethoxy-benzenesulfonylamino)-quinoline-6-carboxylic Acid], the IC50 is reported as over 1 µM.
For `COc1ccc(OC)c(S(=O)(=O)Nc2cnc3ccc(C(N)=O)cc3c2)c1` [Example IX-10, 3-(2,5-Dimethoxy-benzenesulfonylamino)-quinoline-6-carboxylic Acid Amide], the IC50 was 0.1 to 1 µM.
Compound `CNC(=O)c1ccc2ncc(NS(=O)(=O)c3cc(OC)ccc3OC)cc2c1` [Example IX-11, 3-(2,5-Dimethoxy-benzenesulfonylamino)-quinoline-6-carboxylic Acid Methylamide] has an IC50 of 0.1 to 1 µM.
`CCCNC(=O)c1ccc2ncc(NS(=O)(=O)c3cc(OC)ccc3OC)cc2c1` [Example IX-12, 3-(2,5-Dimethoxy-benzenesulfonylamino)-quinoline-6-carboxylic Acid Propylamide] showed an IC50 of under 0.1 µM.
Work on `COc1ccc(OC)c(S(=O)(=O)Nc2cnc3ccc(C(=O)NC4CC4)cc3c2)c1` [Example IX-13, 3-(2,5-Dimethoxy-benzenesulfonylamino)-quinoline-6-carboxylic Acid Cyclopropylamide] yielded an IC50 of 0.1 to 1 µM.
With `COc1ccc(OC)c(S(=O)(=O)Nc2cnc3ccc(C(=O)NC4CCCCC4)cc3c2)c1` [Example IX-14, 3-(2,5-Dimethoxy-benzenesulfonylamino)-quinoline-6-carboxylic Acid Cyclohexylamide] the IC50 was under 0.1 µM.
Work on `COc1ccc(OC)c(S(=O)(=O)Nc2cnc3ccc(CN(C)C)cc3c2)c1` [Example IX-15] yielded an IC50 of 0.1 to 1 µM.
`COc1ccc(Br)cc1S(=O)(=O)Nc1ccsc1` [Example V-1, 5-Bromo-2-methoxy-N-(thiophen-3-yl)benzenesulfonamide] gave an IC50 of over 1 µM.
`COc1ccc(OC)c(S(=O)(=O)Nc2ccsc2)c1` [Example V-2, 2,5-Dimethoxy-N-(thiophen-3-yl)benzenesulfonamide] showed an IC50 of over 1 µM.
Work on `COc1ccc(Br)cc1S(=O)(=O)Nc1ncco1` [Example V-3, 5-Bromo-2-methoxy-N-oxazol-2-yl-benzenesulfonamide] yielded an IC50 of over 1 µM.
With `COc1ccc(OC)c(S(=O)(=O)Nc2ncco2)c1` [Example V-4, 2,5-Dimethoxy-N-oxazol-2-yl-benzenesulfonamide] the IC50 was over 1 µM.
With `COc1ccc(Br)cc1S(=O)(=O)Nc1cc(C)no1` [Example V-5, 5-Bromo-2-methoxy-N-(3-methyl-isoxazol-5-yl)-benzenesulfonamide] the IC50 was 0.1 to 1 µM.
Work on `COc1ccc(OC)c(S(=O)(=O)Nc2cc(C)no2)c1` [Example V-6, 2,5-Dimethoxy-N-(3-methyl-isoxazol-5-yl)-benzenesulfonamide] yielded an IC50 of 0.1 to 1 µM.
`COc1ccc(Br)cc1S(=O)(=O)Nc1cc[nH]n1` [Example V-7, 5-Bromo-2-methoxy-N-(1H-pyrazol-3-yl)-benzenesulfonamide] gave an IC50 of over 1 µM.
`COc1ccc(OC)c(S(=O)(=O)Nc2cc[nH]n2)c1` [Example V-8, 2,5-Dimethoxy-N-(1H-pyrazol-3-yl)-benzenesulfonamide] was tested, and the IC50 was over 1 µM.
Work on `COc1ccc(Br)cc1S(=O)(=O)Nc1ccn(C)n1` [Example V-9, 5-Bromo-2-methoxy-N-(1-methyl-1H-pyrazol-3-yl)-benzenesulfonamide] yielded an IC50 of over 1 µM.
Work on `COc1ccc(OC)c(S(=O)(=O)Nc2ccn(C)n2)c1` [Example V-10, 2,5-Dimethoxy-N-(1-methyl-1H-pyrazol-3-yl)-benzenesulfonamide] yielded an IC50 of over 1 µM.
Compound `COc1ccc(Br)cc1S(=O)(=O)Nc1ccnn1C` [Example V-11, 5-Bromo-2-methoxy-N-(2-methyl-2H-pyrazol-3-yl)-benzenesulfonamide] has an IC50 of over 1 µM.
`COc1ccc(OC)c(S(=O)(=O)Nc2ccnn2C)c1` [Example V-12, 2,5-Dimethoxy-N-(2-methyl-2H-pyrazol-3-yl)-benzenesulfonamide] gave an IC50 of over 1 µM.
With `COc1ccc(Br)cc1S(=O)(=O)Nc1cc(C(F)(F)F)n(C)n1` [Example V-13, 5-Bromo-2-methoxy-N-(1-methyl-5-trifluoromethyl-1H-pyrazol-3-yl)-benzenesulfonamide] the IC50 was over 1 µM.
Work on `COc1ccc(OC)c(S(=O)(=O)Nc2cc(C(F)(F)F)n(C)n2)c1` [Example V-14, 2,5-Dimethoxy-N-(1-methyl-5-trifluoromethyl-1H-pyrazol-3-yl)-benzenesulfonamide] yielded an IC50 of over 1 µM.
`COc1ccc(Br)cc1S(=O)(=O)Nc1nccs1` [Example V-15, 5-Bromo-2-methoxy-N-thiazol-2-yl-benzenesulfonamide] gave an IC50 of over 1 µM.
Compound `COc1ccc(OC)c(S(=O)(=O)Nc2nccs2)c1` [Example V-16, 2,5-Dimethoxy-N-thiazol-2-yl-benzenesulfonamide] has an IC50 of over 1 µM.
`COc1ccc(Br)cc1S(=O)(=O)Nc1nnc(C)s1` [Example V-17, 5-Bromo-2-methoxy-N-(5-methyl-[1,3,4]thiadiazol-2-yl)-benzenesulfonamide] gave an IC50 of over 1 µM.
In the case of `COc1ccc(OC)c(S(=O)(=O)Nc2nnc(C)s2)c1` [Example V-18, 2,5-Dimethoxy-N-(5-methyl-[1,3,4]thiadiazol-2-yl)-benzenesulfonamide], the IC50 is reported as over 1 µM.
In the case of `COc1ccc(Br)cc1S(=O)(=O)Nc1nnc(C(F)(F)F)s1` [Example V-19, 5-Bromo-2-methoxy-N-(5-trifluoromethyl-[1,3,4]thiadiazol-2-yl)-benzenesulfonamide], the IC50 is reported as 0.1 to 1 µM.
In the case of `COc1ccc(OC)c(S(=O)(=O)Nc2nnc(C(F)(F)F)s2)c1` [Example V-20], the IC50 is reported as over 1 µM.
`COc1ccc(Br)cc1S(=O)(=O)Nc1nnc(C)o1` [Example V-21, 5-Bromo-2-methoxy-N-(5-methyl-[1,3,4]oxadiazol-2-yl)-benzenesulfonamide] was tested, and the IC50 was over 1 µM.
